Data taken from patent US11040028B2, “Penicinotam derivative, preparation method and use thereof” (OCEAN UNIVERSITY OF CHINA, priority 2017, dated 2021).
Like-named read-outs stand apart in the source and are kept apart here.

Legend:
Format in all cases: cell-based
[1] = test system: mouse macrophages (RAW264.7); test: Lipopolysaccharide-induced NO secretion in macrophages (Griess); details: RAW264.7, LPS 1 μg/ml, a/b isomers given as first/second symbol, read-out: IC50 (μM), inhibition of lipopolysaccharide-induced NO secretion in macrophages
Description: The effects of the compounds of the present application on the lipopolysaccharide-induced NO secretion in macrophage was tested Principle: Anti-inflammatory drug activity screening is to detect the inhibitory effect of compounds on NO production in the mouse macrophages (RAW264.7). When immune cells are stimulated by microbial endotoxin, inflammatory mediators, etc., a large amount of induced NO synthase (iNOS) is produced, and thus NO is generated for immune response. Accordingly, the inhibition of NO production can serve as a direct indicator of the anti-inflammatory activity of the compound. The activity of the compound to inhibit NO production at the cellular level is directly evaluated in the abovementioned test model, thereby reflecting the anti-inflammatory activity of the compound. In this experiment, the content of NO in the medium was detected by Gris kit (Molecular probes, G-7921). Macrophages (Raw264.7) were cultured in DMEM medium containing 10% fetal bovine serum, with the cell concentration adjusted. The cells were seeded in 24-well cell culture plates, cultured in an incubator, and the test samples in different concentrations were added every other day. The blank medium was used as a blank control, and commercially available indomethacin and resveratrol were employed as positive controls. After the addition of lipopolysaccharide (LPS, 1 μg/ml), incubation was performed for 24 hours. Then the supernatant culture solution was taken, to […] reagent was added, and the absorbance value was measured by a microplate reader at 548 nm. Inhibition rate=([…])×100%.

[2] = test system: human embryonic lung fibroblast IMR-90; test: Anti-fibrosis activity test: inhibition of proliferation of human embryonic lung fibroblast IMR-90 (CCK-8)
In short: (§1)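 After one day of adherence at 37° C in 5% CO2, cells (seeded at 2×10^4 cells/mL) received the compounds for two days in triplicate. Inhibition of proliferation was quantified with CCK-8 at 450 nm, with IC50 calculated from IR = (1−Ai/Ao)×100%.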

[3] = test system: human lung fibroblasts HFL1; test: Anti-fibrosis activity test: inhibition of proliferation of human lung fibroblasts HFL1 (CCK-8); details: Homo sapiens, HFL1, 48 h
In short: as §1

[4] = test system: human hepatic stellate cells LX-2; test: Anti-fibrosis activity test: inhibition of proliferation of human hepatic stellate cells LX-2 (CCK-8); details: Homo sapiens, 48 h
In short: as §1

BHK-21 cells = test: Anti-fibrosis activity test: inhibition of BHK-21 cell proliferation (CCK-8); details: Mesocricetus auratus, BHK-21, 48 h
In short: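 Cells plated 2×10^4 cells/mL; 24 h attach; compound dilutions, triplicate, 48 h, 37° C/5% CO2; CCK-8 2 h; A450; IR = (1−Ai/Ao)×100%; IC50 by curve fit.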

[5] = test system: human fibrosarcoma cells HT-1080; test: Anti-fibrosis activity test: inhibition of proliferation of human fibrosarcoma cells HT-1080 (CCK-8); details: Homo sapiens, HT-1080, 48 h
In short: as §1

[6] = test system: human dermal fibroblasts CCC-ESF-1; test: Anti-fibrosis activity test: inhibition of proliferation of human dermal fibroblasts CCC-ESF-1 (CCK-8); details: Fibroblast
In short: as §1

[7] = test system: cardiac fibroblast RAT-iCell-C002; test: Anti-fibrosis activity test: inhibition of proliferation of cardiac fibroblast RAT-iCell-C002 (CCK-8); details: Cardiac fibroblast, 48 h
In short: as §1

[8] = human embryonic lung fibroblast IMR-90, CCK-8, 48 hours
[9] = human lung fibroblasts HFL1, CCK-8, 48 hours
[10] = human hepatic stellate cells LX-2, CCK-8, 48 hours
[11] = CCK-8, 48 hours after administration
[12] = human fibrosarcoma cells HT-1080, CCK-8, 48 hours
[13] = human dermal fibroblasts CCC-ESF-1, CCK-8, 48 hours
[14] = cardiac fibroblast RAT-iCell-C002, CCK-8, 48 hours
[15] = Homo sapiens, IMR-90 cells, 48 h, CCK-8
[16] = Homo sapiens, CCC-ESF-1 cells, 48 h, CCK-8

## O=C1c2c(n(Cc3ccc(Cl)cc3)c3c(C(F)(F)F)c(N4CCNCC4)ccc3c2=O)-c2cccn21 [Compound 483a, 4-(4-Chlorobenzyl)-6-(piperazin-1-yl)-5-(trifluoromethyl)-9H-pyrrolizino[1,2-b]quinoline-9,10(4H)-dione]
[1]; 24 hours
  IC50: 10 to 50 µM
[2]; [8]
  IC50: 0.05 to 5 mM
[3]; [9]
  IC50: 0.05 to 5 mM
[4]; [10]
  IC50: 0.05 to 5 mM
BHK-21 cells; [11]
  IC50: < 0.05 mM
[5]; [12]
  IC50: 0.05 to 5 mM
[6]; [13]
  IC50: 0.05 to 5 mM
[7]; [14]
  IC50: 0.05 to 5 mM

## O=C1c2c(n(-c3ccc(F)cc3)c3ccc(C(F)(F)F)cc3c2=O)-c2cccn21 [Compound 259a, 4-(4-Fluorophenyl)-7-(trifluoromethyl)-9H-pyrrolizino[1,2-b]quinoline-9,10(4H)-dione]
[1]; Mus musculus, RAW264.7, 24 h
  IC50: 1 to 10 µM
[2]; [8]
  IC50: 0.05 to 5 mM
[3]; [9]
  IC50: 0.05 to 5 mM
[4]; [10]
  IC50: 0.05 to 5 mM
BHK-21 cells; [11]
  IC50: 0.05 to 5 mM
[5]; [12]
  IC50: 0.05 to 5 mM
[6]; [13]
  IC50: 5 to 20 mM
[7]; [14]
  IC50: 0.05 to 5 mM

## O=C1c2c(n(Cc3ccc(F)cc3)c3c(F)cccc3c2=O)-c2cccn21 [Compound 452a, 5-Fluoro-4-(4-fluorobenzyl)-9H-pyrrolizino[1,2-b]quinoline-9,10(4H)-dione]
[1]; Mus musculus, RAW264.7, 24 h
  IC50: 1 to 10 µM
[2]; [8]
  IC50: 0.05 to 5 mM
[3]; [9]
  IC50: 0.05 to 5 mM
[4]; [10]
  IC50: < 0.05 mM
BHK-21 cells; [11]
  IC50: 0.05 to 5 mM
[5]; [12]
  IC50: 0.05 to 5 mM
[6]; [13]
  IC50: 0.05 to 5 mM
[7]; [14]
  IC50: 0.05 to 5 mM

## O=C1c2c(nc3c(C(F)(F)F)cccc3c2OCc2ccccc2Cl)-c2cccn21 [Compound 457b, 9-((2-chlorobenzyl)oxy)-5-(trifluoromethyl)-10H-pyrrolizino[1,2-b]quinolin-10-one]
[1]; Mus musculus, RAW264.7, 24 h
  IC50: 1 to 10 µM
[2]; [8]
  IC50: 0.05 to 5 mM
[3]; [9]
  IC50: 0.05 to 5 mM
[4]; [10]
  IC50: 0.05 to 5 mM
BHK-21 cells; [11]
  IC50: 0.05 to 5 mM
[5]; [12]
  IC50: 0.05 to 5 mM
[6]; [13]
  IC50: 0.05 to 5 mM
[7]; [14]
  IC50: 0.05 to 5 mM

## CCCOCCOc1c2c(nc3ccccc13)C(=O)n1cccc1-2 [Compound 790b, 11-(2-propoxyethoxy)-5H-pyrrolizino[2,1-b]quinolin-5-one]
[1]; Mus musculus, RAW264.7, 24 h
  IC50: 1 to 10 µM
[2]; [15]
  IC50: 0.05 to 5 mM
[3]; HFL1 cells, 48 h, CCK-8
  IC50: 0.05 to 5 mM
[4]; LX-2, 48 h, LX-2 cells, CCK-8
  IC50: 0.05 to 5 mM
BHK-21 cells; 48 h, CCK-8
  IC50: 0.05 to 5 mM
[5]; HT-1080 cells, 48 h, CCK-8
  IC50: 0.05 to 5 mM
[6]; [16]
  IC50: 0.05 to 5 mM
[7]; RAT-iCell-C002 cells, CCK-8
  IC50: 0.05 to 5 mM

## O=C1c2c(n(Cc3cccc(Cl)c3)c3c(C(F)(F)F)cccc3c2=O)-c2cccn21 [Compound 455a, 4-(3-Chlorobenzyl)-5-(trifluoromethyl)-9H-pyrrolizino[1,2-b]quinoline-9,10(4H)-dione]
[1]; Mus musculus, RAW264.7, 24 h
  IC50: 1 to 10 µM
[2]; [8]
  IC50: 5 to 20 mM
[3]; [9]
  IC50: 5 to 20 mM
[4]; [10]
  IC50: 0.05 to 5 mM
BHK-21 cells; [11]
  IC50: 0.05 to 5 mM
[5]; [12]
  IC50: 0.05 to 5 mM
[6]; [13]
  IC50: 0.05 to 5 mM
[7]; [14]
  IC50: 0.05 to 5 mM

## N#Cc1ccccc1-c1ccc(COc2c3c(nc4ccccc24)C(=O)n2cccc2-3)cc1 [Compound 795b, 4′-(((5-oxo-5H-pyrrolizino[2,1-b]quinolin-11-yl)oxy)methyl)-[1,1′-biphenyl]-2-carbonitrile]
[1]; Mus musculus, RAW264.7, 24 h
  IC50: 1 to 10 µM
[2]; [15]
  IC50: 0.05 to 5 mM
[3]; HFL1 cells, 48 h, CCK-8
  IC50: 0.05 to 5 mM
[4]; LX-2, 48 h, LX-2 cells, CCK-8
  IC50: 0.05 to 5 mM
BHK-21 cells; 48 h, CCK-8
  IC50: 0.05 to 5 mM
[5]; HT-1080 cells, 48 h, CCK-8
  IC50: 0.05 to 5 mM
[6]; [16]
  IC50: 0.05 to 5 mM
[7]; RAT-iCell-C002 cells, CCK-8
  IC50: 0.05 to 5 mM

## CC(C)n1c2c(c(=O)c3cc(F)c(N4CCNCC4)cc31)C(=O)n1cccc1-2 [Compound 331a, 7-Fluoro-4-isopropyl-6-(piperazin-1-yl)-9H-pyrrolizino[1,2-b]quinoline-9,10(4H)-dione]
[1]; Mus musculus, RAW264.7, 24 h
  IC50: 1 to 10 µM
[2]; [8]
  IC50: 0.05 to 5 mM
[3]; [9]
  IC50: 0.05 to 5 mM
[4]; [10]
  IC50: 0.05 to 5 mM
BHK-21 cells; [11]
  IC50: 0.05 to 5 mM
[5]; [12]
  IC50: 0.05 to 5 mM
[6]; [13]
  IC50: 0.05 to 5 mM
[7]; [14]
  IC50: 0.05 to 5 mM

## O=C1c2c(n(C(=O)c3ccco3)c3cc(N4CCNCC4)c(F)cc3c2=O)-c2cccn21 [Compound 343a, 7-Fluoro-4-(furan-2-carbonyl)-6-(piperazin-1-yl)-9H-pyrrolizino[1,2-b]quinoline-9,10(4H)-dione]
[1]; Mus musculus, RAW264.7, 24 h
  IC50: 1 to 10 µM
[2]; [8]
  IC50: 0.05 to 5 mM
[3]; [9]
  IC50: 0.05 to 5 mM
[4]; [10]
  IC50: 0.05 to 5 mM
BHK-21 cells; [11]
  IC50: 0.05 to 5 mM
[5]; [12]
  IC50: < 0.05 mM
[6]; [13]
  IC50: 0.05 to 5 mM
[7]; [14]
  IC50: 0.05 to 5 mM
